According to patent publication US10757943B2, “Thidiazuron mixtures and uses thereof” (Valent BioSciences LLC, priority 2017, dated 2020):

Key:
Format in all cases: in vivo
Concord grape vines [1] = assay: Bud break and harvest weight of endo-dormant two-year-old Concord grape vines in the greenhouse (Example 4); conditions: thidiazuron ppm and 17-0-0 % as in label, 15-0-0 65,880 ppm; for Fresh Shoot Weight (g)/Plant: new growth at close of study
Excerpt: Two-year-old Concord grape vines were purchased commercially. These vines had just lost their leaves and were shipped shortly after they were dug at the nursery. Thus, the vines had not fulfilled their chilling requirement and were considered endo-dormant. The vines were potted individually into one-gallon pots containing ProMix® BX immediately upon receipt and subsequently pruned back to the five proximal buds on the one-year old wood. Within two hours of pruning, treatment solutions were applied using a foam paint brush to the remaining one-year old wood, including the cut end from pruning. Two treatments, water and hydrogen cyanimide, which acted as negative and positive controls, respectively, were included in all studies.
Treatment solutions were made fresh in water and contained 1% (v/v) non-ionic surfactant. In all cases, two treatment solutions were applied to the plants. Where a single component was used for a treatment, the first application solution was water containing surfactant; in the cases where combination treatments were made to the same plant, the first treatment solution was allowed to dry prior to applying the second.
The treated plants were kept in a conventional greenhouse under supplemental lighting. Greenhouse conditions were 65:60° F. Day:Night temperature with a 16:8 hour photoperiod. Relief from dormancy was assessed every two days during the course of the study. Dormancy was considered relieved upon the emergence of a green bud. Both the number of ‘broken buds’ per plant and the date of relief of plants from dormancy were assessed. At the close of the study, new growth was removed from each of the treated plants and weighed.

[2] = tested on: Red Flame seedless grape vines; assay: Bud break and shoot length of field-grown Red Flame seedless grape vines (Example 2); conditions: for Broken Buds per plant (Average Buds Broken per Spur): 31 days after treatment; for % Broken Buds / Total Shoot Length: 48 days after treatment
Experimental: To assess the ability of mixtures of the invention to promote and synchronize bud break these mixtures were applied to field-grown Red Flame seedless grape vines and examined for bud break (initiation of growth) and subsequent shoot development. Thidiazuron, hydrogen cyanamide, 17-0-0 fertilizer, and mixtures thereof were each applied individually or sequentially (co-applied) to the separate spurs of Red Flame seedless grape vines. Plants were evaluated for bud break at 31 days after treatment, for percent bud break and total new shoot length at 48 days after treatment. Results of these evaluations can be seen below in Tables 4 and 5.

Concord grape vines [3] = assay: Bud break and shoot growth of potted dormant Concord grape vines in the greenhouse (Example 1); conditions: for % bud break (vines with at least one bud break): hydrogen cyanamide 10,000 ppm, 17-0-0 197,100 ppm, 15-0-0 239,060 ppm, ACC 1,000 ppm; for % bud break (vines with at least one bud break) / 50% Bud Break to Harvest / Initial to 50% Bud Break / 25% Bud Break (DAT) / 50% Bud Break (DAT): thidiazuron 300 ppm unless label states other; for Dry Weight (g)/25% Bud Break to Harvest (d): combined shoot dry weight at 49 DAT normalised by days from 25% bud break to harvest; for Dry Weight (g)/50% Bud Break to Harvest (d): combined shoot dry weight at 49 DAT normalised by days from 50% bud break to harvest; for Fresh Weight (g)/50% Bud Break to Harvest (d): combined shoot fresh weight at 49 DAT normalised by days from 50% bud break to harvest; for 50% Bud Break to Harvest: harvest at day 49; for Initial to 50% Bud Break: synchrony of bud break; for 25% Bud Break (DAT): time to 25% bud break; for 50% Bud Break (DAT): time to 50% bud break
Excerpt: An aqueous 50% hydrogen cyanamide solution (Sigma-Aldrich, St. Louis, Mo. USA) was used as the source of hydrogen cyanamide. The commercial product, Dormex® contains 50% hydrogen cyanamide (w/v) in water.
Erger® was used as the source of 15-0-0 fertilizer. (Erger is a registered trademark of Valagro S.P.A., Italy and is available from Helena Chemical Company, Collierville, Tenn., USA). Erger® contains 15% total nitrogen as 3.1% ammoniacal nitrogen, 5.8% nitrate nitrogen and 6.1% urea nitrogen and 3.3% calcium derived from ammonium nitrate, calcium nitrate and urea. As used herein, the term “15-0-0 fertilizer” refers to the Erger® formulation above and all formulations described in International PCT application publication WO/2001/037653A2 by Valagro S.P.A., Italy, which is incorporated, herein, in its entirety.
CAN-17 was used as the source of 17-0-0 fertilizer. CAN-17 contains 17% total nitrogen as 4.6% ammonium nitrogen and […] nitrate nitrogen and 1.3% urea nitrogen and 8.8% calcium derived from ammonium nitrate and calcium nitrate. CAN-17 is available from J.R. Simplot Company (Boise, Id., USA).
To assess the ability of mixtures of the invention to promote and synchronize bud break these mixtures were applied to Concord grape vines and examined for bud break (initiation of growth) and subsequent shoot development. Specifically, 1 year old dormant bare rooted Concord grape vines were planted in pots containing Pro-Mix® BX potting soil (Pro-Mix is a registered trademark of and available from Premier Horticulture Ltd.) and pruned to 5 nodes on a single shoot. Aqueous solutions of thidiazuron, hydrogen cyanamide, 15-0-0 fertilizer, 17-0-0 fertilizer and 1-aminocyclopropane-1-carboxylic acid (“ACC”), and mixtures thereof were each applied individually or sequentially or co-applied to the first-year wood of separate Concord grape vines. Plants were grown in the greenhouse for 49 days and evaluated for percent of vines showing bud break, or relief from dormancy, periodically between 7 days and the conclusion of the experiment. […] At 49 days after treatment (DAT), the plants were sacrificed and measured for total number of flower clusters, total new shoot length, longest new shoot, combined new shoot fresh weight and combined new shoot dry weight. New shoot growth is the growth arising from the dormant buds not including the woody growth that was planted and gave rise to the new growth.
Synergy is calculated by the Abbott method: %Cexp=A+B−(AB/100), where % Cexp is the expected efficacy and in which A and B are the speed of bud break or shoot length or shoot weight given by the single active ingredients. If the ratio between the experimentally observed efficacy of the mixture Cobs and the expected efficacy of the mixture is greater than 1, synergistic interactions are present in the mixture” (Gisi, Synergistic Interaction of Fungicides in Mixtures, The American Phytopathological Society, 86:11, 1273-1279,1996).

[4] = hydrogen cyanamide 10,000 ppm, thidiazuron 300 ppm, 17-0-0 197,100 ppm
[5] = 49 days post treatment, thidiazuron ppm as in label, other concentrations as in Table 1, listed as Thidiazuron (300)
[6] = 49 days post treatment, thidiazuron ppm as in label, other concentrations as in Table 1, listed as Thidiazuron (1000)
[7] = other concentrations as in Table 1, listed as Thidiazuron (1000)
[8] = other concentrations as in Table 1
[9] = other concentrations as in Table 1, listed as 1,000 ppm thidiazuron

O=C(Nc1ccccc1)Nc1cnns1 [Thidiazuron, 1-Phenyl-3-(1,2,3-thiadiazol-5-yl)urea]
Fresh Shoot Weight (g)/Plant (Concord grape vines [1]; listed as Thidiazuron (100)): 15.53 g | Fresh Shoot Weight (g)/Plant (Concord grape vines [1]; listed as Thidiazuron (300)): 13.15 g | Fresh Shoot Weight (g)/Plant (Concord grape vines [1]; listed as Thidiazuron (1000)): 22.45 g | 50% Bud Break (DAT) (Concord grape vines [1]; listed as Thidiazuron (100)): 33 DAT | 100% Bud Break (DAT) (Concord grape vines [1]; listed as Thidiazuron (100)): 44 DAT | Initial to 50% Bud Break (Concord grape vines [1]; listed as Thidiazuron (100)): 7 | Number of Buds Broken/Plant (Concord grape vines [1]; listed as Thidiazuron (100)): 2 | 50% Bud Break (DAT) (Concord grape vines [1]; listed as Thidiazuron (300)): 28 DAT | 100% Bud Break (DAT) (Concord grape vines [1]; listed as Thidiazuron (300)): 48 DAT | Initial to 50% Bud Break (Concord grape vines [1]; listed as Thidiazuron (300)): 14 | Number of Buds Broken/Plant (Concord grape vines [1]; listed as Thidiazuron (300)): 2.125 | 50% Bud Break (DAT) (Concord grape vines [1]; listed as Thidiazuron (1000)): 21 DAT | 100% Bud Break (DAT) (Concord grape vines [1]; listed as Thidiazuron (1000)): 37 DAT | Initial to 50% Bud Break (Concord grape vines [1]; listed as Thidiazuron (1000)): 7 | Number of Buds Broken/Plant (Concord grape vines [1]; listed as Thidiazuron (1000)): 4.5 | Broken Buds per plant (Average Buds Broken per Spur) [2, 4]: 0.1 | Broken Buds per plant (Average Buds Broken per Spur) ([2]; thidiazuron 1,000 ppm): 0.4 | % Broken Buds [2, 4]: 80% | Total Shoot Length [2, 4]: 15.38 | % Broken Buds ([2]; thidiazuron 1,000 ppm): 78.1% | Total Shoot Length ([2]; thidiazuron 1,000 ppm): 24.3 | % bud break (vines with at least one bud break) (Concord grape vines [3]; 7 DAT): 0% | % bud break (vines with at least one bud break) (Concord grape vines [3]; 10 DAT): 0.0% | % bud break (vines with at least one bud break) (Concord grape vines [3]; 10 DAT, listed as Thidiazuron (1,000)): 44.4% | % bud break (vines with at least one bud break) (Concord grape vines [3]; 13 DAT): 0.0% | % bud break (vines with at least one bud break) (Concord grape vines [3]; 13 DAT, listed as Thidiazuron (1,000)): 77.8% | % bud break (vines with at least one bud break) (Concord grape vines [3]; 15 DAT): 0.0% | % bud break (vines with at least one bud break) (Concord grape vines [3]; 15 DAT, listed as Thidiazuron (1,000)): 88.9% | % bud break (vines with at least one bud break) (Concord grape vines [3]; 17 DAT): 11.1% | % bud break (vines with at least one bud break) (Concord grape vines [3]; 17 DAT, listed as Thidiazuron (1,000)): 88.9% | % bud break (vines with at least one bud break) (Concord grape vines [3]; 20 DAT): 11.1% | % bud break (vines with at least one bud break) (Concord grape vines [3]; 20 DAT, listed as Thidiazuron (1,000)): 100.0% | % bud break (vines with at least one bud break) (Concord grape vines [3]; 22 DAT): 22.2% | % bud break (vines with at least one bud break) (Concord grape vines [3]; 22 DAT, listed as Thidiazuron (1,000)): 100.0% | % bud break (vines with at least one bud break) (Concord grape vines [3]; 24 DAT): 33.3% | % bud break (vines with at least one bud break) (Concord grape vines [3]; 24 DAT, listed as Thidiazuron (1,000)): 100.0% | % bud break (vines with at least one bud break) (Concord grape vines [3]; 27 DAT): 33.3% | % bud break (vines with at least one bud break) (Concord grape vines [3]; 27 DAT, listed as Thidiazuron (1,000 ppm)): 100.0% | % bud break (vines with at least one bud break) (Concord grape vines [3]; 29 DAT): 33.3% | % bud break (vines with at least one bud break) (Concord grape vines [3]; 29 DAT, listed as Thidiazuron (1,000 ppm)): 100.0% | % bud break (vines with at least one bud break) (Concord grape vines [3]; 31 DAT): 33.3% | % bud break (vines with at least one bud break) (Concord grape vines [3]; 31 DAT, listed as Thidiazuron (1,000 ppm)): 100.0% | % bud break (vines with at least one bud break) (Concord grape vines [3]; 34 DAT): 33.3% | % bud break (vines with at least one bud break) (Concord grape vines [3]; 34 DAT, listed as Thidiazuron (1,000 ppm)): 100.0% | % bud break (vines with at least one bud break) (Concord grape vines [3]; 36 DAT): 44.4% | % bud break (vines with at least one bud break) (Concord grape vines [3]; 36 DAT, listed as Thidiazuron (1,000 ppm)): 100.0% | % bud break (vines with at least one bud break) (Concord grape vines [3]; 38 DAT): 55.6% | % bud break (vines with at least one bud break) (Concord grape vines [3]; 38 DAT, listed as Thidiazuron (1,000 ppm)): 100.0% | % bud break (vines with at least one bud break) (Concord grape vines [3]; 41 DAT): 55.6% | % bud break (vines with at least one bud break) (Concord grape vines [3]; 41 DAT, listed as Thidiazuron (1,000 ppm)): 100.0% | % bud break (vines with at least one bud break) (Concord grape vines [3]; 43 DAT): 66.7% | % bud break (vines with at least one bud break) (Concord grape vines [3]; 43 DAT, listed as Thidiazuron (1,000 ppm)): 100.0% | % bud break (vines with at least one bud break) (Concord grape vines [3]; 49 DAT): 77.8% | % bud break (vines with at least one bud break) (Concord grape vines [3]; 49 DAT, listed as Thidiazuron (1,000 ppm)): 100.0% | Total # of Flower Clusters (Concord grape vines [3]; 49 days post treatment, thidiazuron ppm as in label, other concentrations as in Table 1): 0.1 | Combined Shoot Dry Weight (Concord grape vines [3]; [5]): 1.5 g | Combined Shoot Fresh Weight (Concord grape vines [3]; [5]): 8.2 g | Longest Shoot Length (Concord grape vines [3]; [5]): 20.1 cm | Total Shoot Length (Concord grape vines [3]; [5]): 28.3 cm | Combined Shoot Dry Weight (Concord grape vines [3]; [6]): 6.9 g | Combined Shoot Fresh Weight (Concord grape vines [3]; [6]): 31.8 g | Longest Shoot Length (Concord grape vines [3]; [6]): 68.3 cm | Total Shoot Length (Concord grape vines [3]; [6]): 88.8 cm | Dry Weight (g)/25% Bud Break to Harvest (d) (Concord grape vines [3]; listed as Thidiazuron (300)): 0.06 g/day | Dry Weight (g)/25% Bud Break to Harvest (d) (Concord grape vines [3]; listed as Thidiazuron (1000)): 0.17 g/day | Dry Weight (g)/50% Bud Break to Harvest (d) (Concord grape vines [3]; listed as Thidiazuron (300)): 0.13 g/day | Dry Weight (g)/50% Bud Break to Harvest (d) (Concord grape vines [3]; listed as Thidiazuron (1000)): 0.18 g/day | Fresh Weight (g)/50% Bud Break to Harvest (d) (Concord grape vines [3]; listed as Thidiazuron (300)): 0.68 g/day | Fresh Weight (g)/50% Bud Break to Harvest (d) (Concord grape vines [3]; listed as Thidiazuron (1000)): 0.84 g/day | 50% Bud Break to Harvest (Concord grape vines [3]; other concentrations as in Table 1, listed as Thidiazuron (300)): 12 days | 50% Bud Break to Harvest (Concord grape vines [3]; [7]): 38 days | 50% Bud Break to Harvest (Concord grape vines [3]; other concentrations as in Table 1, listed as thidiazuron): 12 days | Initial to 50% Bud Break (Concord grape vines [3]; [8]): 21 days | Initial to 50% Bud Break (Concord grape vines [3]; [9]): 3 days | Initial to 50% Bud Break (Concord grape vines [3]; [7]): 3 days | 25% Bud Break (DAT) (Concord grape vines [3]; [8]): 23 DAT | 25% Bud Break (DAT) (Concord grape vines [3]; [7]): 9 DAT | 50% Bud Break (DAT) (Concord grape vines [3]; [8]): 37 DAT | 50% Bud Break (DAT) (Concord grape vines [3]; [9]): 11 DAT | 50% Bud Break (DAT) (Concord grape vines [3]; [7]): 11 DAT
